Test [1] has as its target T1, HCV NS3/4A 1b protease D168A (Hepatitis C virus genotype 1b, UniProt Q9WMX2, D1194A).
T1 construct: 10× stocks of NS3/4A protease enzyme from Bioenza (Mountain View, Calif.); purchased Bioenza (Mountain View, Calif.)
Kind of test: HCV protease FRET assay (IC50_APP), Example 16. The class given is biochemical. As for the experimental part:
(§1) The following protocol was used to generate “apparent” IC50 (IC50 APP) values as depicted in Table 6, below. […] 5 μL of each enzyme were added to Corning (#3575) 384-well, black, microtiter plates (Corning, N.Y.) after spotting a 0.5 μL volume of 50% DMSO and serially diluted compounds prepared in 50% DMSO. Protease reactions were immediately started after enzyme addition with the addition of 45 μL of the FRET substrate and monitored for 60-90 minutes at λex485/λem520 in a Synergy^4 plate reader from BioTek (Winooski, Vt.). At the conclusion of each assay, progress curves from each well were examined for linear reaction kinetics and fit statistics (R^2, 95% confidence intervals, absolute sum of squares).
(§2) The compound numbers correspond to the compound numbers in Table 3. […] ;

The target in test [2] is T2, HCV NS3/4A 1b protease R155K (Hepatitis C virus genotype 1b, UniProt Q9WMX2, R1181K).
T2 construct: 10× stocks of NS3/4A protease enzyme from Bioenza (Mountain View, Calif.); purchased Bioenza (Mountain View, Calif.)
Kind of test: HCV protease FRET assay (IC50_APP), Example 16. The conditions noted are these: reaction started immediately after enzyme addition, read-out: Inhibition (apparent IC50, IC50_APP), HCV R155K. The class given is biochemical. Here is the method: as §1, §2

The target in test [3] is T3, HCV NS3/4A 1b protease wild type (Hepatitis C virus genotype 1b, UniProt Q9WMX2).
T3 construct: 10× stocks of NS3/4A protease enzyme from Bioenza (Mountain View, Calif.); purchased Bioenza (Mountain View, Calif.)
The test can be described thus: HCV protease FRET assay (IC50_APP), Example 16. The class given is biochemical. As for the experimental part: as §1, §2

Test [4] has as its system HCV RNA replicon in cell line ET (luc-ubi-neo/ET), human Huh7 hepatoma. The test can be described thus: Replicon luciferase assay, Example 26. Type of test: cell-based. Particulars: Hepatitis C virus, Huh-7, assay of Example 26, 72 hr; for EC50: read-out: Inhibition, Replicon, EC50 value; for EC90: read-out: Inhibition, Replicon, EC90 value. Here is the method:
The compounds were assayed to evaluate the antiviral activity and cytotoxicity of compounds using replicon-derived luciferase activity. This assay used the cell line ET (luc-ubi-neo/ET), which is a human Huh7 hepatoma cell line that contains an HCV RNA replicon with a stable luciferase (Luc) reporter and cell culture-adaptive mutations. The ET cell line was grown in a 5% CO2 incubator at 37° C. in Dulbecco's modified essential media (DMEM) supplemented with 2 mM L-glutamine, nonessential amino acids, 100 U of penicillin/ml, 100 μg of streptomycin/mL, and 10% fetal bovine serum. G418 (Geneticin; Invitrogen) was added at a final concentration of 400 ug//mL.
All cell culture reagents were obtained from Invitrogen (Carlsbad). Cells were trypsinized (1% trypsin:EDTA) and plated out at 5×10^3 cells/well in white 96-well assay plates (Costar) dedicated to cell number (cytotoxicity) or antiviral activity assessments. Test compounds were added at six 3-fold concentrations each and the assay was run in DMEM, 5% FBS, 1% pen-strep, 1% glutamine, 1% non essential amino acid. Human interferon alpha-2b (PBL Biolabs, New Brunswick, N.J.) was included in each run as a positive control compound. Cells were processed 72 hr post test compound addition when the cells were still subconfluent. Antiviral activity was measured by analyzing replicon-derived luciferase activity using the Steady-Glo Luciferase Assay System (Promega, Madison, Wis.) according to manufacturer's instruction. The number of cells in each well was determined by Cell Titer Blue Assay (Promega). Compound profile was derived by calculating applicable EC50 (effective concentration inhibiting virus replication by 50%), EC90 (effective concentration inhibiting virus replication by 90%), IC50 (concentration decreasing cell viability by 50%) and SI50 (selective index: […]) values.

Where only a bound is given, the exact number is not on record here.

The term IC50 denotes the concentration at which inhibition is half-maximal. As a reminder, the EC50 is the concentration giving half of the maximal effect. Turning to `C=C[C@@H]1C[C@]1(NC(=O)[C@@H]1CC(OC(=O)N2Cc3cccc(F)c3C2)CN1C(=O)[C@H](CCC(=O)C#CC(C)(C)C)NC(=O)OC(C)(C)C)C(=O)NS(=O)(=O)C1CC1` (stereo partly shown) [Compound I-29], the IC50 in test [1], in test [2] and in test [3] was < 10 nM throughout. In test [4], the EC50 lay within 10 to 100 nM.

On to `CC[C@@H]1C[C@]1(NC(=O)[C@@H]1CC(OC(=O)N2Cc3cccc(F)c3C2)CN1C(=O)[C@H](CCC(=O)C=C(C)C)NC(=O)OC(C)(C)C)C(=O)NS(=O)(=O)C1CC1` (stereo partly shown) [Compound I-33], for which the results for the IC50 in test [1], in test [2] and in test [3] were 1000 to 10000 nM, 100 to 1000 nM and < 10 nM, respectively.

By EC90 is commonly meant the point of the concentration-response curve where the effect stands at 90%. Take `C=CC(=O)N1CCC/C=C\[C@@H]2C[C@@]2(C(=O)NS(=O)(=O)C2CC2)NC(=O)[C@@H]2CC(OC(=O)N3Cc4cccc(F)c4C3)CN2C(=O)[C@@H](NC(=O)OC(C)(C)C)C1` (stereo partly drawn) [Compound I-35, (1aR,3aS,5R,9S,16aS,Z)-11-acryloyl-9-(tert-butoxycarbonylamino)-1a-(cyclopropylsulfonylcarbamoyl)-3,8-dioxo-1,1a,2,3,3a,4,5,6,8,9,10,11,12,13,14,16a-hexadecahydrocyclopropa[n]pyrrolo[2,1-c][1,4,8]triazacyclopentadecin-5-yl-4-fluoroisoindoline-2-carboxylate]: the results for the IC50 in test [1], in test [2] and in test [3] were 10 to 100 nM, 10 to 100 nM and < 10 nM, respectively. In test [4], the EC50 was 100 to 1000 nM. Further, in test [4], the EC90 lay within 100 to 1000 nM.

For the compound `C=CC(=O)N1CC/C=C\[C@@H]2C[C@@]2(C(=O)NS(=O)(=O)C2CC2)NC(=O)[C@@H]2CC(OC(=O)N3Cc4cccc(F)c4C3)CN2C(=O)[C@@H](NC(=O)OC(C)(C)C)CC1` (stereo partly shown) [Compound I-36], the IC50 in test [1], in test [2] and in test [3] was < 10 nM throughout. Besides, the EC50 in test [4] fell in the range of 100 to 1000 nM. For the same compound, in test [4], the EC90 fell in the range of 100 to 1000 nM.

In the case of `C=CC(=O)N1C/C=C\[C@@H]2C[C@@]2(C(=O)NS(=O)(=O)C2CC2)NC(=O)[C@@H]2CC(OC(=O)N3Cc4cccc(F)c4C3)CN2C(=O)[C@@H](NC(=O)OC(C)(C)C)CCC1` (stereo partly shown) [Compound I-37], the IC50 is 10 to 100 nM in test [1], 10 to 100 nM in test [2] and < 10 nM in test [3]. The EC50 in test [4] fell in the range of 100 to 1000 nM. In test [4], the EC90 lay within 1000 to 10000 nM.

In the case of `C/C=C(\C)C(=O)CC[C@H](NC(=O)OC(C)(C)C)C(=O)N1CC(OC(=O)N2Cc3cccc(F)c3C2)C[C@H]1C(=O)N[C@]1(C(=O)NS(=O)(=O)C2CC2)C[C@H]1CC` (stereo partly shown) [Compound I-39], the half-inhibitory concentration (IC50) in test [1] was 100 to 1000 nM; in test [2], 10 to 100 nM; in test [3], < 10 nM.

Turning to `C=CC(=O)NC[C@@H]1NC(=O)OCC(C)(C)CC/C=C/c2cccc3c2CN(C3)C(=O)O[C@@H]2C[C@@H](C(=O)N[C@]3(C(=O)NS(=O)(=O)C4CC4)C[C@H]3C=C)N(C2)C1=O` [Compound I-40], the IC50 in test [1] was 10 to 100 nM; in test [2] it was < 10 nM; in test [3] it was < 10 nM.

In the case of `C=CC(=O)NC[C@@H]1NC(=O)OCC(C)(C)CCCCc2cccc3c2CN(C3)C(=O)O[C@@H]2C[C@@H](C(=O)N[C@]3(C(=O)NS(=O)(=O)C4CC4)C[C@H]3C=C)N(C2)C1=O` [Compound I-42], the IC50 was 10 to 100 nM in test [1], 10 to 100 nM in test [2] and < 10 nM in test [3].

Regarding `CCCCC(NC(=O)[C@@H]1C[C@@H](OC(=O)N2Cc3cccc(F)c3C2)CN1C(=O)[C@H](CCC(=O)C=C(C)C)NC(=O)OC(C)(C)C)C(=O)NS(=O)(=O)C1CC1` (stereo partly drawn) [Compound I-44, (3R,5S)-1-((S)-2-(tert-butoxycarbonylamino)-7-methyl-5-oxooct-6-enoyl)-5-(1-(cyclopropanesulfonamido)-1-oxohexan-2-ylcarbamoyl)pyrrolidin-3-yl 4-fluoroisoindoline-2-carboxylate], the results for the IC50 in test [1], in test [2] and in test [3] were 1000 to 10000 nM, 1000 to 10000 nM and < 10 nM, respectively.

Regarding `CC(C)(C)OC(=O)N[C@H]1CN(S(=O)(=O)c2ccccc2[N+](=O)[O-])CCC/C=C\[C@@H]2C[C@@]2(C(=O)NS(=O)(=O)C2CC2)NC(=O)[C@@H]2CC(OC(=O)N3Cc4cccc(F)c4C3)CN2C1=O` (stereo partly shown) [Compound I-45], the IC50 in test [1], in test [2] and in test [3] was < 10 nM throughout. For the same compound, the EC50 in test [4] was 10 to 100 nM. The EC90 in test [4] lay in the range of 100 to 1000 nM.

For `C=CC(=O)N1CC(C(NC(C)=O)C(=O)N2CC(OC(=O)N3Cc4cccc(F)c4C3)C[C@H]2C(=O)N[C@]2(C(=O)NS(=O)(=O)C3CC3)C[C@H]2C=C)C1` (stereo partly shown) [Compound I-46], the IC50 is 10 to 100 nM in test [1], < 10 nM in test [2] and < 10 nM in test [3]. For the same compound, in test [4], the EC50 was in the range of 1000 to 10000 nM. The EC90 in test [4] lay within 1000 to 10000 nM.

On to `CC(C)(C)OC(=O)N[C@H]1CN(C(=O)CCl)CCC/C=C\[C@@H]2C[C@@]2(C(=O)N(C(=O)CCl)S(=O)(=O)C2CC2)NC(=O)[C@@H]2CC(OC(=O)N3Cc4cccc(F)c4C3)CN2C1=O` (stereo partly shown) [Compound I-48], for which the IC50 in test [1] was in the range of 100 to 1000 nM; in test [2], 100 to 1000 nM; in test [3], 10 to 100 nM.

As for `C=C[C@@H]1C[C@]1(NC(=O)[C@@H]1CC(OC(=O)N2Cc3cccc(F)c3C2)CN1C(=O)[C@@H](C)Nc1ccnc(Cl)n1)C(=O)NS(=O)(=O)C1CC1` (stereo partly shown) [Compound I-49], the IC50 in test [1] fell in the range of 1000 to 10000 nM; in test [2] it was 1000 to 10000 nM; in test [3], 100 to 1000 nM. Also, in test [4], the EC50 fell in the range of 1000 to 10000 nM. In test [4], the EC90 lay in the range of 1000 to 10000 nM.

Consider `C=CC(=O)N(C)CC(NC(=O)C12CCC(C(=O)OC)(CC1)CC2)C(=O)N1CC(OC(=O)N2Cc3cccc(F)c3C2)C[C@H]1C(=O)N[C@]1(C(=O)NS(=O)(=O)C2CC2)C[C@H]1C=C` (stereo partly shown) [Compound I-52], for which the IC50 in test [1] is 1000 to 10000 nM. For the same compound, the IC50 in test [3] was 10 to 100 nM. In test [4], the EC50 was 1000 to 10000 nM and the EC90 lay in the range of 1000 to 10000 nM.

With `CC[C@@H]1C[C@]1(NC(=O)[C@@H]1C[C@@H](OC(=O)N2Cc3cccc(F)c3C2)CN1C(=O)[C@H](CC(=O)C=C(C)C)NC(=O)OC(C)(C)C)C(=O)NS(=O)(=O)C1CC1` [Compound I-60], the IC50 in test [2] is 100 to 1000 nM; in test [3], < 10 nM.

In the case of `CC(C)(C)OC(=O)N[C@H]1COC(=O)/C=C/C=C\[C@@H]2C[C@@]2(C(=O)NS(=O)(=O)C2CC2)NC(=O)[C@@H]2C[C@@H](OC(=O)N3Cc4cccc(F)c4C3)CN2C1=O` [Compound I-65], the values for the IC50 in test [1], in test [2] and in test [3] were 100 to 1000 nM, 10 to 100 nM and < 10 nM, respectively.

As for `C/C=C/C(=O)OC1CC/C=C\[C@@H]2C[C@@]2(C(=O)NS(=O)(=O)C2CC2)NC(=O)[C@@H]2C[C@@H](OC(=O)N3Cc4cccc(F)c4C3)CN2C(=O)[C@@H](NC(=O)OC(C)(C)C)CC1` (stereo partly shown) [Compound I-66], the IC50 in test [1], in test [2] and in test [3] was < 10 nM each time.

`C=C[C@@H]1C[C@]1(NC(=O)[C@@H]1C[C@@H](OC(=O)N2Cc3cccc(F)c3C2)CN1C(=O)[C@H](COC(=O)/C=C/C=C/C)NC(=O)OC(C)(C)C)C(=O)NS(=O)(=O)C1CC1` [Compound I-67]: the IC50 is 100 to 1000 nM in test [1], 100 to 1000 nM in test [2] and < 10 nM in test [3].

For `C=C[C@@H]1C[C@]1(NC(=O)[C@@H]1CC(OC(=O)N2Cc3cccc(F)c3C2)CN1C(=O)[C@H](CC(=O)/C(C)=C/C)NC(=O)OC(C)(C)C)C(=O)NS(=O)(=O)C1CC1` (stereo partly shown) [Compound I-70], the IC50 in test [1] was 100 to 1000 nM; in test [2] it was 100 to 1000 nM; in test [3], < 10 nM.

On to `C=C[C@@H]1C[C@]1(NC(=O)[C@@H]1CC(OC(=O)N2Cc3cccc(F)c3C2)CN1C(=O)[C@H](CC/C=C/C(=O)OC)NC(=O)OC(C)(C)C)C(=O)NS(=O)(=O)C1CC1` (stereo partly shown) [Compound I-72], for which the IC50 in test [1] was 100 to 1000 nM; in test [2], 10 to 100 nM; in test [3], < 10 nM.

Values taken from patent publication US8293705B2, “HCV protease inhibitors and uses thereof” (Avila Therapeutics, Inc., priority 2007, dated 2012).
